Experimental data: patent US10239851B2 (priority 2014, dated 2019)
Like-named read-outs stand apart in the source and are kept apart here.

What was measured:
[1] = In vitro dissociation of the water soluble taxane derivatives in blood plasma of rat; format: in vitro ADME, SD rats; settings: 37° C.
Description: The obtained water soluble taxane derivatives were formulated as 0.2 mg/ml aqueous solutions. […] After 2 min, 5 min and 10 min of incubation, 0.2 ml of solutions were respectively taken from each of the samples, and added to acetonitrile (0.4 ml) cooled to −20° C. for precipitation of protein.

[2] = In vitro dissociation of the water soluble taxane derivatives in blood plasma of rabbit; format: in vitro ADME, New Zealand white rabbits; settings: 37° C.
Description: The obtained water soluble taxane derivatives were formulated as 0.2 mg/ml aqueous solutions. […] After 5 min, 20 min and 60 min of incubation, 0.2 ml of solutions were respectively taken from each of the samples, and added to acetonitrile (0.4 ml) cooled to −20° C. for precipitation of protein.

[3] = system: human prostate cancer PC-3; settings: for Tumor volume (mm^3) (D0): D0 (baseline at grouping)
Description: Test of the inhibitory activity of the water soluble cabazitaxel derivatives on subcutaneously xenografted tumor of human prostate cancer PC-3 in nude mice: evaluating and comparing the inhibitory activity of the water soluble cabazitaxel derivatives and cabazitaxel on subcutaneously xenografted tumor of human prostate cancer PC-3 in nude mice.
Human prostate cancer PC-3 cells were subcutaneously inoculated into nude mice. After the tumor volume reached 100-150 mm^3, the animals were randomly divided into several groups, and administered with the water soluble cabazitaxel derivatives of the present invention and cabazitaxel, respectively once on the same day (D0). The tumor volume was measured 2-3 times per week, the animals were weighed and the data were recorded until day 20 (D20) after grouping.
(§1) The tumor volume (V) was calculated according to the equation: V=½×a×b^2, wherein a and b represent the length and the width, respectively.
(§2) T/C (%)=(T−T0)/(C−C0)×100, wherein T and C represent the tumor volume at the end of the experiment; and T0 and C0 represent the tumor volume at the beginning of the experiment.

[4] = system: human prostate cancer PC-3; settings: PC-3 xenograft, nude mice, 33.6 mg/kg, D0 IV, single dose; for Tumor inhibitory percent (%) D20: P(D20)=0.000 vs control; for Tumor volume (mm^3) (D0): D0 (baseline at grouping)
Description: Test of the inhibitory activity of the water soluble docetaxel derivatives on subcutaneously xenografted tumor of human prostate cancer PC-3 in nude mice: evaluating and comparing the inhibitory activity of the water soluble docetaxel derivatives and docetaxel on subcutaneously xenografted tumor of human prostate cancer PC-3 in nude mice.
Human prostate cancer PC-3 cells were subcutaneously inoculated into nude mice. After the tumor volume reached 100-150 mm^3, the animals were randomly divided into several groups, and administered with the water soluble docetaxel derivatives of the present invention and docetaxel, respectively once on the same day (D0). The tumor volume was measured 2-3 times per week, the animals were weighed and the data were recorded until day 20 (D20) after grouping.
as §1, §2

[5] = PC-3 xenograft, nude mice, 13 mg/kg, D0 IV, single dose
[6] = PC-3 xenograft, nude mice, 13 mg/kg, D0 IV, single dose, D6
[7] = PC-3 xenograft, nude mice, 7 mg/kg, D0 IV, single dose

**Q.** Which results are given for `CO[C@H]1C(=O)[C@]2(C)[C@@H](OC)C[C@H]3OC[C@@]3(OC(C)=O)[C@H]2[C@H](OC(=O)c2ccccc2)[C@]2(O)C[C@H](OC(=O)[C@H](OC(=O)[C@H](F)CCN(C)C)[C@@H](NC(=O)OC(C)(C)C)c3ccccc3)C(C)=C1C2(C)C.CS(=O)(=O)O` [Compound C7, 2′-O-[4-(N,N-dimethyl)amino-2(R)-fluorobutyryl]cabazitaxel methanesulfonate]?
**A.** dissociation percent ([1]; 2 min): 49.7%; dissociation percent ([1]; 5 min): 88.9%; dissociation percent ([1]; 10 min): 100%; dissociation percent ([2]; 5 min): 78.4%; dissociation percent ([2]; 20 min): 94.8%; dissociation percent ([2]; 60 min): 100%; T/C (%) D20 [3, 5]: −67%

**Q.** For `CC(=O)O[C@@]12CO[C@@H]1C[C@H](O)[C@@]1(C)C(=O)[C@H](O)C3=C(C)[C@@H](OC(=O)[C@H](OC(=O)C(CCN(C)C)C(F)F)[C@@H](NC(=O)OC(C)(C)C)c4ccccc4)C[C@@](O)([C@@H](OC(=O)c4ccccc4)[C@H]21)C3(C)C.Cl` (stereo partly drawn) [Compound 27, 2′-O-[4-(N,N-dimethyl)amino-2(R,S)-2-difluoromethylbutyryl]docetaxel hydrochloride], which “T/C (%) D20” value [4] is on record?
**A.** −37%

**Q.** And the “Tumor inhibitory percent (%) D20” value [4]?
**A.** 85%

**Q.** For `CC(=O)O[C@@]12CO[C@@H]1C[C@H](O)[C@@]1(C)C(=O)[C@H](O)C3=C(C)[C@@H](OC(=O)[C@H](OC(=O)[C@@H](F)CCCCN(C)C)[C@@H](NC(=O)OC(C)(C)C)c4ccccc4)C[C@@](O)([C@@H](OC(=O)c4ccccc4)[C@H]21)C3(C)C.O=S(=O)(O)O` [Compound 29, 2′-O-[6-(N,N-dimethyl)amino-2(S)-fluorohexanoyl]docetaxel sulfate], which “Tumor volume (mm^3) (D0)” value [4] is on record?
**A.** 114.7 ± 3.5 mm^3

**Q.** What about the “Weight change (%) D6” value [4] of the same compound?
**A.** −15.8%

**Q.** What about the “T/C (%) D20” value [4] of the same compound?
**A.** −20%

**Q.** And the “Tumor volume (mm^3) (D20)” value [4]?
**A.** 52.4 ± 12.5 mm^3

**Q.** And the “Tumor inhibitory percent (%) D20” value [4]?
**A.** 45%

**Q.** For `CCN(C)CCC(F)C(=O)OC(C(=O)OC1CC2(O)C(OC(=O)c3ccccc3)C3C4(OC(C)=O)COC4CC(O)C3(C)C(=O)C(O)C(=C1C)C2(C)C)C(NC(=O)OC(C)(C)C)c1ccccc1.CS(=O)(=O)O` [Compound 23, 2′-O-[4-(N-methyl-N-ethyl)amino-2(R)-fluorobutyryl]docetaxel methanesulfonate], which “T/C (%) D20” value [4] is on record?
**A.** −62%

**Q.** With `CC(=O)O[C@@]12CO[C@@H]1C[C@H](O)[C@@]1(C)C(=O)[C@H](O)C3=C(C)[C@@H](OC(=O)[C@H](OC(=O)[C@H](F)CCN(C)C)[C@@H](NC(=O)OC(C)(C)C)c4ccccc4)C[C@@](O)([C@@H](OC(=O)c4ccccc4)[C@H]21)C3(C)C.CS(=O)(=O)O` [Compound C4, 2′-O-[4-(N,N-dimethyl)amino-2(R)-fluorobutyryl]docetaxel methanesulfonate] as the compound, how does the dissociation percent ([1]; 2 min) read?
**A.** 59.2%

**Q.** And the dissociation percent ([1]; 5 min)?
**A.** 93.4%

**Q.** And the dissociation percent ([1]; 10 min)?
**A.** 100%

**Q.** What about the “T/C (%) D20” value [4] of the same compound?
**A.** −77%

**Q.** What about the dissociation percent ([2]; 5 min) of the same compound?
**A.** 81.6%

**Q.** What about the dissociation percent ([2]; 20 min) of the same compound?
**A.** 94.8%

**Q.** And the dissociation percent ([2]; 60 min)?
**A.** 100%

**Q.** Which dissociation percent ([1]; 2 min) does the source give for `CO[C@H]1C(=O)[C@]2(C)[C@@H](OC)C[C@H]3OC[C@@]3(OC(C)=O)[C@H]2[C@H](OC(=O)c2ccccc2)[C@]2(O)C[C@H](OC(=O)[C@H](OC(=O)C(F)CCN(C)C)[C@@H](NC(=O)OC(C)(C)C)c3ccccc3)C(C)=C1C2(C)C.CS(=O)(=O)O` (stereo partly drawn) [Compound C9, 2′-O-[4-(N,N-dimethyl)amino-2(R,S)-fluorobutyryl] cabazitaxel methanesulfonate] here?
**A.** 49.3%

**Q.** What about the dissociation percent ([1]; 5 min) of the same compound?
**A.** 88.6%

**Q.** What about the dissociation percent ([1]; 10 min) of the same compound?
**A.** 100%

**Q.** And the dissociation percent ([2]; 5 min)?
**A.** 81.2%

**Q.** And the dissociation percent ([2]; 20 min)?
**A.** 96.7%

**Q.** What about the dissociation percent ([2]; 60 min) of the same compound?
**A.** 100%

**Q.** And the “T/C (%) D20” value [3, 5]?
**A.** −66%

**Q.** Which “Tumor volume (mm^3) (D0)” value [3, 5] does the source give for `CO[C@H]1C(=O)[C@]2(C)[C@@H](OC)C[C@H]3OC[C@@]3(OC(C)=O)[C@H]2[C@H](OC(=O)c2ccccc2)[C@]2(O)C[C@H](OC(=O)[C@H](OC(=O)[C@@H](CCN(C)C)C(F)F)[C@@H](NC(=O)OC(C)(C)C)c3ccccc3)C(C)=C1C2(C)C.Cc1ccc(S(=O)(=O)O)cc1` [Compound 34, 2′-O-[4-(N,N-dimethyl)amino-2(R)-2-difluoromethylbutyryl] cabazitaxel p-toluene sulfonate] here?
**A.** 116.7 ± 3.9 mm^3

**Q.** And the “Weight change (%) D6” value [3, 6]?
**A.** −16.1%

**Q.** And the “T/C (%) D20” value [3, 5]?
**A.** −37%

**Q.** And the “Tumor inhibitory percent (%) D20” value [3, 5]?
**A.** 85%

**Q.** What about the “Tumor volume (mm^3) (D20)” value [3, 5] of the same compound?
**A.** 48.4 ± 14.7 mm^3

**Q.** With `CO[C@H]1C(=O)[C@]2(C)[C@@H](OC)C[C@H]3OC[C@@]3(OC(C)=O)[C@H]2[C@H](OC(=O)c2ccccc2)[C@]2(O)C[C@H](OC(=O)[C@H](OC(=O)[C@@H](F)CCN(C)C)[C@@H](NC(=O)OC(C)(C)C)c3ccccc3)C(C)=C1C2(C)C.CS(=O)(=O)O` [Compound C8, 2′-O-[4-(N,N-dimethyl)amino-2(S)-fluorobutyryl]cabazitaxel methanesulfonate] as the compound, how does the dissociation percent ([1]; 2 min) read?
**A.** 49.4%

**Q.** What about the dissociation percent ([1]; 5 min) of the same compound?
**A.** 88.4%

**Q.** And the dissociation percent ([1]; 10 min)?
**A.** 100%

**Q.** And the dissociation percent ([2]; 5 min)?
**A.** 85.6%

**Q.** And the dissociation percent ([2]; 20 min)?
**A.** 94.5%

**Q.** What about the dissociation percent ([2]; 60 min) of the same compound?
**A.** 100%

**Q.** And the “T/C (%) D20” value [3, 5]?
**A.** −66%

**Q.** With `CO[C@H]1C(=O)[C@]2(C)[C@@H](OC)C[C@H]3OC[C@@]3(OC(C)=O)[C@H]2[C@H](OC(=O)c2ccccc2)[C@]2(O)C[C@H](OC(=O)[C@H](O)[C@@H](NC(=O)OC(C)(C)C)c3ccccc3)C(C)=C1C2(C)C` [cabazitaxel, reference compound] as the compound, how does the “Tumor volume (mm^3) (D0)” value [3, 7] read?
**A.** 111.7 ± 1.8 mm^3

**Q.** And the “T/C (%) D20” value [3, 7]?
**A.** −27%

**Q.** And the “Tumor inhibitory percent (%) D20” value [3, 7]?
**A.** 127%

**Q.** What about the “Tumor volume (mm^3) (D20)” value [3, 7] of the same compound?
**A.** 79.9 ± 24.8 mm^3

**Q.** What about the “Weight change (%) D6” value ([3]; mouse, in vivo, iv, 7 mg/kg) of the same compound?
**A.** −13.8%

**Q.** For `CO[C@H]1C(=O)[C@]2(C)[C@@H](OC)C[C@H]3OC[C@@]3(OC(C)=O)[C@H]2[C@H](OC(=O)c2ccccc2)[C@]2(O)C[C@H](OC(=O)[C@H](OC(=O)[C@H](F)CCCCN(C)C)[C@@H](NC(=O)OC(C)(C)C)c3ccccc3)C(C)=C1C2(C)C.O=S(=O)(O)O` [Compound 36, 2′-O-[6-(N,N-dimethyl)amino-2(R)-fluorohexanoyl]cabazitaxel sulfate], which “Tumor volume (mm^3) (D0)” value [3, 5] is on record?
**A.** 111.9 ± 3.7 mm^3

**Q.** And the “Weight change (%) D6” value [3, 6]?
**A.** −16.8%

**Q.** And the “T/C (%) D20” value [3, 5]?
**A.** −20%

**Q.** What about the “Tumor inhibitory percent (%) D20” value [3, 5] of the same compound?
**A.** 46%

**Q.** And the “Tumor volume (mm^3) (D20)” value [3, 5]?
**A.** 66.8 ± 12.4 mm^3

**Q.** With `CC(=O)O[C@@]12CO[C@@H]1C[C@H](O)[C@@]1(C)C(=O)[C@H](O)C3=C(C)[C@@H](OC(=O)[C@H](OC(=O)C(F)CCCN(C)C)[C@@H](NC(=O)OC(C)(C)C)c4ccccc4)C[C@@](O)([C@@H](OC(=O)c4ccccc4)[C@H]21)C3(C)C.CS(=O)(=O)O` (stereo partly drawn) [Compound 28, 2′-O-[5-(N,N-dimethyl)amino-2(R,S)-fluorovaleryl]docetaxel methanesulfonate] as the compound, how does the “Tumor volume (mm^3) (D0)” value [4] read?
**A.** 118.2 ± 4.8 mm^3

**Q.** What about the “Weight change (%) D6” value [4] of the same compound?
**A.** −15.4%

**Q.** And the “T/C (%) D20” value [4]?
**A.** −28%

**Q.** What about the “Tumor volume (mm^3) (D20)” value [4] of the same compound?
**A.** 41.5 ± 14.7 mm^3

**Q.** What about the “Tumor inhibitory percent (%) D20” value [4] of the same compound?
**A.** 64%

**Q.** For `CC(=O)O[C@@]12CO[C@@H]1C[C@H](O)[C@@]1(C)C(=O)[C@H](O)C3=C(C)[C@@H](OC(=O)[C@H](OC(=O)[C@@H](CCN(C)C)C(F)(F)F)[C@@H](NC(=O)OC(C)(C)C)c4ccccc4)C[C@@](O)([C@@H](OC(=O)c4ccccc4)[C@H]21)C3(C)C.CS(=O)(=O)O` [Compound 26, 2′-O-[4-(N,N-dimethyl)amino-2(R)-2-trifluoromethylbutyryl] docetaxel methanesulfonate], which “T/C (%) D20” value [4] is on record?
**A.** −46%

**Q.** For `CC(=O)O[C@@]12CO[C@@H]1C[C@H](O)[C@@]1(C)C(=O)[C@H](O)C3=C(C)[C@@H](OC(=O)[C@H](OC(=O)[C@H](F)CCN(C)C(C)C)[C@@H](NC(=O)OC(C)(C)C)c4ccccc4)C[C@@](O)([C@@H](OC(=O)c4ccccc4)[C@H]21)C3(C)C.Cl` [Compound 25, 2′-O-[4-(N-methyl-N-isopropyl)amino-2(R)-fluorobutyryl]docetaxel hydrochloride], which “T/C (%) D20” value [4] is on record?
**A.** −44%

**Q.** For `CCN(CC)CC[C@@H](F)C(=O)O[C@@H](C(=O)O[C@H]1C[C@@]2(O)[C@@H](OC(=O)c3ccccc3)[C@@H]3[C@]4(OC(C)=O)CO[C@@H]4C[C@H](OC)[C@@]3(C)C(=O)[C@H](OC)C(=C1C)C2(C)C)[C@@H](NC(=O)OC(C)(C)C)c1ccccc1.CS(=O)(=O)O` [Compound 31, 2′-O-[4-(N,N-diethyl)amino-2(R)-fluorobutyryl]cabazitaxel methanesulfonate], which “T/C (%) D20” value [3, 5] is on record?
**A.** −50%

**Q.** Which “T/C (%) D20” value [3, 5] does the source give for `CCN(C)CC[C@@H](F)C(=O)O[C@@H](C(=O)O[C@H]1C[C@@]2(O)[C@@H](OC(=O)c3ccccc3)[C@@H]3[C@]4(OC(C)=O)CO[C@@H]4C[C@H](OC)[C@@]3(C)C(=O)[C@H](OC)C(=C1C)C2(C)C)[C@@H](NC(=O)OC(C)(C)C)c1ccccc1.O=C(O)/C=C\C(=O)O` [Compound 30, 2′-O-[4-(N-methyl-N-ethyl)amino-2(R)-fluorobutyryl]cabazitaxel maleate] here?
**A.** −56%

**Q.** Which results are given for `CCN(CC)CCC(F)C(=O)OC(C(=O)OC1CC2(O)C(OC(=O)c3ccccc3)C3C4(OC(C)=O)COC4CC(O)C3(C)C(=O)C(O)C(=C1C)C2(C)C)C(NC(=O)OC(C)(C)C)c1ccccc1.O=C(O)C=CC(=O)O` [Compound 24, 2′-O-[4-(N,N-diethyl)amino-2(S)-fluorobutyryl]docetaxel maleate]?
**A.** T/C (%) D20 [4]: −52%; Tumor inhibitory percent (%) D20 [4]: 120%
